Assay results from US8952024B2, “Herbicidal pyrimidone derivatives” (E I du Pont de Nemours and Company, priority 2009, dated 2015).

Assays:
Experiment in all cases: Test D pre-/postemergence plant response
Format in all cases: in vivo
[1] = system: Surinam grass (Brachiaria decumbens)
In short: (§1)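 Seeds in loam–sand blend treated preemergence, and plants at 1- to 4-leaf stage (2–18 cm) treated postemergence, with compounds in non-phytotoxic solvent with surfactant. Greenhouse for 14–21 days, then visual rating against controls, 0 (no effect) to 100 (complete control).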

[2] = system: barnyardgrass (Echinochloa crus-galli)
In short: as §1

[3] = system: bermudagrass (Cynodon dactylon)
In short: as §1

[4] = system: dallisgrass (Paspalum dilatatum)
In short: as §1

[5] = system: dayflower (Virginia (VA) dayflower, Commelina virginica)
In short: as §1

[6] = system: goosegrass (Eleusine indica)
In short: as §1

[7] = system: green foxtail (Setaria viridis)
In short: as §1

[8] = system: groundsel (common groundsel, Senecio vulgaris); conditions: Postemergence
In short: as §1

[9] = system: guineagrass (Panicum maximum)
In short: as §1

[10] = system: itchgrass (Rottboellia cochinchinensis)
In short: as §1

[11] = system: johnsongrass (Sorghum halepense)
In short: as §1

kochia (Kochia scoparia) = system: kochia (Kochia scoparia)
In short: as §1

[12] = system: mallow (common mallow, Malva sylvestris)
In short: as §1

[13] = system: naked crabgrass (Digitaria nuda)
In short: as §1

[14] = system: sowthistle (common sowthistle, Sonchus oleraceous)
In short: as §1

[15] = Postemergence, 16 g ai/ha, scale 0 to 100
[16] = Postemergence, 31 g ai/ha, scale 0 to 100
[17] = Postemergence, 62 g ai/ha, scale 0 to 100 (0 no effect, 100 complete control)
[18] = Preemergence, 31 g ai/ha, scale 0 to 100 (0 no effect, 100 complete control)
[19] = Preemergence, 125 g ai/ha, scale 0 to 100
[20] = Postemergence, 31 g ai/ha, scale 0 to 100 (0 no effect, 100 complete control)
[21] = Postemergence, 125 g ai/ha, scale 0 to 100 (0 no effect, 100 complete control)
[22] = Preemergence, 16 g ai/ha, scale 0 to 100, 0 no effect, 100 complete control
[23] = Preemergence, 62 g ai/ha, scale 0 to 100

O=C1CCCC(O)=C1C(=O)c1cnc(-c2cccnc2)n(-c2ccccc2)c1=O [Compound 113, 5-[(2-hydroxy-6-oxo-1-cyclohexen-1-yl)carbonyl]-3-phenyl-2-(3-pyridinyl)-4(3H)-pyrimidone]
70: Plant response rating, Bermudagrass [3, 20] | Plant response rating, Bermudagrass [3, 23] | Plant response rating, Dallisgrass [4, 21] | Plant response rating, Foxtail, Green [7, 17] | Plant response rating, Guineagrass [9, 21] | Plant response rating, Itchgrass [10, 21] | Plant response rating, Kochia (kochia (Kochia scoparia); [18]) | Plant response rating, Crabgrass, Naked [13, 17]
100: Plant response rating, Dallisgrass [4, 19] | Plant response rating, Groundsel ([8]; 125 g ai/ha, scale 0 to 100 (0 no effect, 100 complete control)) | Plant response rating, Groundsel ([8]; 62 g ai/ha, scale 0 to 100 (0 no effect, 100 complete control)) | Plant response rating, Guineagrass [9, 23] | Plant response rating, Guineagrass [9, 19] | Plant response rating, Kochia (kochia (Kochia scoparia); [23]) | Plant response rating, Kochia (kochia (Kochia scoparia); [19]) | Plant response rating, Crabgrass, Naked [13, 19] | Plant response rating, Sowthistle [14, 21] | Plant response rating, Sowthistle [14, 17] | Plant response rating, Sowthistle [14, 19]
65: Plant response rating, Barnyardgrass [2, 15] | Plant response rating, Bermudagrass [3, 15] | Plant response rating, Dayflower, VA [5, 19] | Plant response rating, Goosegrass [6, 21] | Plant response rating, Goosegrass [6, 17] | Plant response rating, Guineagrass [9, 18] | Plant response rating, Itchgrass [10, 17] | Plant response rating, Johnsongrass [11, 17] | Plant response rating, Crabgrass, Naked [13, 16]
25: Plant response rating, Goosegrass [6, 22] | Plant response rating, Goosegrass [6, 18] | Plant response rating, Foxtail, Green [7, 15] | Plant response rating, Guineagrass [9, 15] | Plant response rating, Guineagrass [9, 16] | Plant response rating, Kochia (kochia (Kochia scoparia); [15])
90: Plant response rating, Foxtail, Green [7, 21] | Plant response rating, Groundsel ([8]; 16 g ai/ha, scale 0 to 100) | Plant response rating, Groundsel ([8]; 31 g ai/ha, scale 0 to 100) | Plant response rating, Mallow [12, 19] | Plant response rating, Crabgrass, Naked [13, 23] | Plant response rating, Sowthistle [14, 15]
40: Plant response rating, Surinam Grass [1, 18] | Plant response rating, Dayflower, VA [5, 16] | Plant response rating, Goosegrass [6, 15] | Plant response rating, Johnsongrass [11, 15] | Plant response rating, Johnsongrass [11, 16] | Plant response rating, Kochia (kochia (Kochia scoparia); [16])
95: Plant response rating, Surinam Grass [1, 19] | Plant response rating, Goosegrass [6, 19] | Plant response rating, Sowthistle [14, 16]
50: Plant response rating, Bermudagrass [3, 22] | Plant response rating, Bermudagrass [3, 18] | Plant response rating, Dallisgrass [4, 18] | Plant response rating, Dallisgrass [4, 23] | Plant response rating, Dayflower, VA [5, 22] | Plant response rating, Dayflower, VA [5, 18] | Plant response rating, Dayflower, VA [5, 23] | Plant response rating, Goosegrass [6, 16] | Plant response rating, Guineagrass [9, 17] | Plant response rating, Kochia (kochia (Kochia scoparia); [21]) | Plant response rating, Kochia (kochia (Kochia scoparia); [17]) | Plant response rating, Crabgrass, Naked [13, 15] | Plant response rating, Sowthistle [14, 22]
5: Plant response rating, Dallisgrass [4, 22] | Plant response rating, Mallow [12, 18] | Plant response rating, Mallow [12, 23]
80: Plant response rating, Surinam Grass [1, 17] | Plant response rating, Barnyardgrass [2, 21] | Plant response rating, Barnyardgrass [2, 17] | Plant response rating, Bermudagrass [3, 21] | Plant response rating, Bermudagrass [3, 17]
60: Plant response rating, Surinam Grass [1, 15] | Plant response rating, Dallisgrass [4, 17] | Plant response rating, Dayflower, VA [5, 21] | Plant response rating, Dayflower, VA [5, 17] | Plant response rating, Foxtail, Green [7, 16]
35: Plant response rating, Barnyardgrass [2, 19]
10: Plant response rating, Dallisgrass [4, 15] | Plant response rating, Dallisgrass [4, 16] | Plant response rating, Itchgrass [10, 16] | Plant response rating, Johnsongrass [11, 23] | Plant response rating, Johnsongrass [11, 19]
75: Plant response rating, Surinam Grass [1, 16] | Plant response rating, Barnyardgrass [2, 20] | Plant response rating, Goosegrass [6, 23] | Plant response rating, Johnsongrass [11, 21] | Plant response rating, Crabgrass, Naked [13, 21] | Plant response rating, Sowthistle [14, 18]
0: Plant response rating, Barnyardgrass [2, 22] | Plant response rating, Barnyardgrass [2, 18] | Plant response rating, Barnyardgrass [2, 23] | Plant response rating, Foxtail, Green [7, 22] | Plant response rating, Foxtail, Green [7, 18] | Plant response rating, Foxtail, Green [7, 23] | Plant response rating, Guineagrass [9, 22] | Plant response rating, Itchgrass [10, 15] | Plant response rating, Itchgrass [10, 22] | Plant response rating, Itchgrass [10, 18] | Plant response rating, Itchgrass [10, 23] | Plant response rating, Itchgrass [10, 19] | Plant response rating, Johnsongrass [11, 22] | Plant response rating, Johnsongrass [11, 18] | Plant response rating, Mallow [12, 15] | Plant response rating, Mallow [12, 16] | Plant response rating, Mallow [12, 17] | Plant response rating, Mallow [12, 22] | Plant response rating, Crabgrass, Naked [13, 22] | Plant response rating, Crabgrass, Naked [13, 18]
85: Plant response rating, Bermudagrass [3, 19]
20: Plant response rating, Dayflower, VA [5, 15] | Plant response rating, Foxtail, Green [7, 19] | Plant response rating, Mallow [12, 21]
